Results reported in PubChem BioAssay (NCI).
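Step 1: Grow cells in 96-well plates. Step 2: Expose to compound for 48 hours at 5 concentrations. Step 3: Interpolate endpoints linearly; if unreached, use highest concentration. GI50 marks 50% less growth. At the TGI there is no net growth.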

Tests used:
Experiment in all cases: NCI tumour cell line growth inhibition, 48 h
DLD-1 colon = tested on: DLD-1 colon
DMS 114 small cell lung = tested on: DMS 114 small cell lung
HT29 colon = tested on: HT29 colon
K-562 leukemia = tested on: K-562 leukemia
KM20L2 colon = tested on: KM20L2 colon
M14 melanoma = tested on: M14 melanoma
MOLT-4 leukemia = tested on: MOLT-4 leukemia
OVCAR-8 ovarian = tested on: OVCAR-8 ovarian
SK-OV-3 ovarian = tested on: SK-OV-3 ovarian
SNB-78 CNS = tested on: SNB-78 CNS
NCI/ADR-RES ovarian = tested on: NCI/ADR-RES ovarian
P388 leukemia = tested on: P388 leukemia
SN12K1 renal = tested on: SN12K1 renal
BT-549 breast = tested on: BT-549 breast
DU-145 prostate = tested on: DU-145 prostate
MDA-N = tested on: MDA-N

| SMILES | GI50 (DLD-1 colon) [µM] | TGI (DLD-1 colon) [µM] | TGI (DMS 114 small cell lung) [µM] | TGI (HT29 colon) [µM] | TGI (K-562 leukemia) [µM] | GI50 (KM20L2 colon) [µM] | TGI (KM20L2 colon) [µM] | TGI (M14 melanoma) [µM] | TGI (MOLT-4 leukemia) [µM] | TGI (OVCAR-8 ovarian) [µM] | TGI (SK-OV-3 ovarian) [µM] | GI50 (SNB-78 CNS) [µM] | TGI (SNB-78 CNS) [µM] | TGI (NCI/ADR-RES ovarian) [µM] | TGI (P388 leukemia) [µM] | TGI (SN12K1 renal) [µM] | TGI (BT-549 breast) [µM] | TGI (DU-145 prostate) [µM] | TGI (MDA-N) [µM] |
| --- | --- | --- | --- | --- | --- | --- | --- | --- | --- | --- | --- | --- | --- | --- | --- | --- | --- | --- | --- |
| C/C(=N\NC(=O)c1ccccc1O)c1cccc(/C(C)=N/NC(=O)c2ccccc2O)n1.O=S(=O)([O-])[O-].[Fe+2] | > 100 | > 100 | > 100 | > 100 | > 100 | > 100 | > 100 | > 100 | > 100 | > 100 | > 100 | > 100 | > 100 |  |  |  |  |  |  |
| CC(C)C1NC(=O)CC(c2ccccc2)N(N=O)C1c1ccccc1 (configuration not stated) |  | > 100 | > 100 | > 100 | > 100 |  | > 100 |  | > 100 | > 100 | > 100 |  | > 100 | > 100 | > 100 | > 100 |  |  |  |
| COc1cc(C2(c3ncc[nH]3)SSSCC2O)ccc1O (configuration not stated) |  | > 100 | 52.2 | > 100 | > 56.5 |  | > 100 |  | > 54.7 | > 100 | > 100 |  | > 100 | > 62.8 | > 48.1 | > 55.4 |  |  |  |
| Cc1c(N=C/C=C/c2ccccc2)c(=O)n(-c2ccccc2)n1C |  |  |  | > 100 |  |  |  | 38.9 | 83.8 | 54.4 | > 100 |  |  | 79.6 |  |  | 58.1 | > 100 | 54 |
| Cc1cccc2sc(-c3ccc(O)cc3)nc12 |  |  |  | 28.7 | > 100 |  |  | 28.5 | > 100 | 31.8 | 35.4 |  |  | 38.9 |  |  | 25.2 | 31.6 | 19.4 |
| O=C(N/N=C/c1cc(Br)cc(Br)c1[O-])c1ccccc1O.O=C(N/N=C/c1cc(Br)cc(Br)c1[O-])c1ccccc1O.[Zn+2] |  |  |  | 12.3 |  |  | 6.57 | 8.3 | > 100 | 10.5 | 8.49 |  |  |  |  |  |  |  |  |
| CCCCCCCCCOCC(COP(=O)([O-])OCC[N+](C)(C)C)OC (configuration not stated) |  | > 100 | > 100 | > 100 | > 100 |  | > 100 |  | > 100 | > 100 | > 100 |  | > 100 | > 100 | > 100 | > 100 |  |  |  |
| NC1CCC(N(CC(=O)O)CC(=O)O)C(N(CC(=O)O)CC(=O)O)C1 (configuration not stated) |  |  |  | > 100 | > 100 |  |  |  | > 100 | > 100 | > 100 |  |  | > 100 |  |  | > 100 | > 100 | > 100 |
| CCOC(=O)/C(=N/Nc1ccccc1)N1C(=S)C=C(C)NN(C)C1=S |  |  |  | > 100 | > 100 |  |  | > 100 | > 100 | > 100 | > 100 |  |  | > 100 |  |  | > 100 | > 100 |  |
